{"source": "paper PMC10449633", "about": "(Nature Chemical Biology, 2023)", "key": {"Sec61 [1]": {"biological_target": "T1, Sec61 (Homo sapiens, UniProt P61619)", "T1 construct": "endogenous in cells", "assay": "signal peptide-GLuc (SP-GLuc) reporter panel, 89 constructs", "assay_type": "cell-based", "details": "read-out: IC50", "text": "The heat map depicts IC50 values calculated from each SP-GLuc dose–response curve. d, Arthritis was induced in BALB/c mice with antibodies specific for type II collagen (mAb) on day 0 and endotoxin on day 3. On day 4, when the disease was present in all animals, mice were randomized and treated for 2 weeks with thrice weekly (QODx3) or weekly (QW) intravenous administration of vehicle or KZR-8445 or intraperitoneal administration of dexamethasone. Clinical scores (0–4 per paw; n = 10 per group) and body weights were followed until day 14. Data are presented as mean values ± s.d. mAb, monoclonal antibody. Source data\nTo investigate the effects of KZR-8445 on secretory and membrane protein biogenesis and to establish Sec61α as the relevant target, we quantified the secretion of a doxycycline-inducible Gaussia luciferase (GLuc) reporter fused to the C-terminus of two full-length pro-inflammatory cytokines, interleukin-2 (IL-2) (which contains a cleavable signal peptide) and tumor necrosis factor-alpha (TNFα) (which contains an N-terminal transmembrane anchor). […] KZR-8445 is structurally related to CT8, which discriminates among Sec61 clients based largely on their N-terminal signal peptide. […] We also directly compared KZR-8445 to mycolactone A/B, a structurally distinct and relatively client-nonselective Sec61 inhibitor[8],[25], for their ability to discriminate between vascular cell adhesion molecule (VCAM) and preprolactin (pPL) signal peptides."}, "Sec61 [2]": {"biological_target": "T1, Sec61", "assay": "cell-based"}}, "note": "“And” between values parts separate entries of the source, which are not always exact repeats. Equal entries are not always repeated. Where two headings read alike, the source gives them in different places. Square brackets hold non-standard residues; d marks the D form. Peptide text beside a SMILES is read from it. NMeTrp(1-(4-Br-benzyl)) = CN[C@@H](Cc1cn(Cc2ccc(Br)cc2)c2ccccc12)C(=O)O; Butanoyl(2R-oxy,4-CN) = N#CCC[C@@H](O)C(=O)O; Abu(4,4,4-F3) = N[C@@H](CC(F)(F)F)C(=O)O; NMeL = CN[C@@H](CC(C)C)C(=O)O; NMeA = CN[C@@H](C)C(=O)O", "data": [{"molecule": "CC(C)C[C@@H]1NC(=O)[C@H](Cc2cn(Cc3ccc(Br)cc3)c3ccccc23)N(C)C(=O)[C@H](CC(F)(F)F)NC(=O)[C@H](CC(C)C)N(C)C(=O)[C@H](CC(F)(F)F)NC(=O)[C@@H](CCC#N)OC(=O)[C@H](C)N(C)C1=O", "note": "[KZR-0508445] (cyclo(L[NMeA][Butanoyl(2R-oxy,4-CN)][Abu(4,4,4-F3)][NMeL][Abu(4,4,4-F3)][NMeTrp(1-(4-Br-benzyl))]))", "values": [{"measurement": "IC50", "setting": "Sec61 [1]; ITGB7 signal peptide-GLuc reporter", "result": 228, "unit": "nM"}, {"measurement": "IC50", "setting": "Sec61 [1]; JTB signal peptide-GLuc reporter", "result": 25.5, "unit": "nM"}, {"measurement": "IC50", "setting": "Sec61 [1]; KRTDAP signal peptide-GLuc reporter", "result": 570, "unit": "nM"}, {"measurement": "IC50", "setting": "Sec61 [1]; LCN6 signal peptide-GLuc reporter", "result": 101, "unit": "nM"}, {"measurement": "IC50", "setting": "Sec61 [1]; LDLR signal peptide-GLuc reporter", "result": 800, "unit": "nM"}, {"measurement": "IC50", "setting": "Sec61 [1]; LILRB2 signal peptide-GLuc reporter", "result": 1730, "unit": "nM"}, {"measurement": "IC50", "setting": "Sec61 [1]; LRP8 signal peptide-GLuc reporter", "result": 681, "unit": "nM"}, {"measurement": "IC50", "setting": "Sec61 [1]; MASP2 signal peptide-GLuc reporter", "result": 127, "unit": "nM"}, {"measurement": "IC50", "setting": "Sec61 [1]; METTL7A signal peptide-GLuc reporter", "result": 6900, "unit": "nM"}, {"measurement": "IC50", "setting": "Sec61 [1]; NGF signal peptide-GLuc reporter", "result": 347, "unit": "nM"}, {"measurement": "IC50", "setting": "Sec61 [1]; P3H1 signal peptide-GLuc reporter", "result": 72.7, "unit": "nM"}, {"measurement": "IC50", "setting": "Sec61 [1]; PCDHA4 signal peptide-GLuc reporter", "result": 489, "unit": "nM"}, {"measurement": "IC50", "setting": "Sec61 [1]; PCSK9 signal peptide-GLuc reporter", "result": 1280, "unit": "nM"}, {"measurement": "IC50", "setting": "Sec61 [1]; PDCD1 signal peptide-GLuc reporter", "result": 37, "unit": "nM"}, {"measurement": "IC50", "setting": "Sec61 [1]; PRKCSH signal peptide-GLuc reporter", "result": 186, "unit": "nM"}, {"measurement": "IC50", "setting": "Sec61 [1]; PSG8 signal peptide-GLuc reporter", "result": 292, "unit": "nM"}, {"measurement": "IC50", "setting": "Sec61 [1]; SIRPA signal peptide-GLuc reporter", "result": 2030, "unit": "nM"}, {"measurement": "IC50", "setting": "Sec61 [1]; SSR2 signal peptide-GLuc reporter", "result": 137, "unit": "nM"}, {"measurement": "IC50", "setting": "Sec61 [1]; STAB1 signal peptide-GLuc reporter", "result": 670, "unit": "nM"}, {"measurement": "IC50", "setting": "Sec61 [1]; SUCO signal peptide-GLuc reporter", "result": 1450, "unit": "nM"}, {"measurement": "IC50", "setting": "Sec61 [1]; TGFB1 signal peptide-GLuc reporter", "result": 2210, "unit": "nM"}, {"measurement": "IC50", "setting": "Sec61 [1]; TGFB2 signal peptide-GLuc reporter", "result": 187, "unit": "nM"}, {"measurement": "IC50", "setting": "Sec61 [1]; TGFBR1 signal peptide-GLuc reporter", "result": 134, "unit": "nM"}, {"measurement": "IC50", "setting": "Sec61 [1]; TIGIT signal peptide-GLuc reporter", "result": 590, "unit": "nM"}, {"measurement": "IC50", "setting": "Sec61 [1]; TMED10 signal peptide-GLuc reporter", "result": 462, "unit": "nM"}, {"measurement": "IC50", "setting": "Sec61 [1]; UCN signal peptide-GLuc reporter", "result": 5900, "unit": "nM"}, {"measurement": "GLuc reporter raw signal (replicates)", "setting": "Sec61 [2]; HER3, Concentration 0.32", "result": "2935000 and 2941500 and 3013900"}, {"measurement": "GLuc reporter raw signal (replicates)", "setting": "Sec61 [2]; HER3, Concentration 8", "result": "2659500 and 2842600"}, {"measurement": "GLuc reporter raw signal (replicates)", "setting": "Sec61 [2]; HER3, Concentration 40", "result": "1960600 and 2026300 and 1990500"}, {"measurement": "GLuc reporter raw signal (replicates)", "setting": "Sec61 [2]; HER3, Concentration 200", "result": "739710 and 740510 and 713180"}, {"measurement": "GLuc reporter raw signal (replicates)", "setting": "Sec61 [2]; HER3, Concentration 1000", "result": "117630 and 116630 and 119290"}, {"measurement": "GLuc reporter raw signal (replicates)", "setting": "Sec61 [2]; HER3, Concentration 5000", "result": "40623 and 42704 and 41387"}, {"measurement": "GLuc reporter raw signal (replicates)", "setting": "Sec61 [2]; HER3, Concentration 25000", "result": "40492 and 42302 and 41156"}, {"measurement": "GLuc reporter raw signal (replicates)", "setting": "Sec61 [2]; IL2, Concentration 0.32", "result": "2694100 and 2451600 and 2682900"}, {"measurement": "GLuc reporter raw signal (replicates)", "setting": "Sec61 [2]; IL2, Concentration 8", "result": "2155800 and 2012200 and 2217000"}, {"measurement": "GLuc reporter raw signal (replicates)", "setting": "Sec61 [2]; IL2, Concentration 40", "result": "1384000 and 1357800 and 1362400"}, {"measurement": "GLuc reporter raw signal (replicates)", "setting": "Sec61 [2]; IL2, Concentration 200", "result": "418080 and 431560 and 427460"}, {"measurement": "GLuc reporter raw signal (replicates)", "setting": "Sec61 [2]; IL2, Concentration 1000", "result": "69620 and 75099 and 80209"}, {"measurement": "GLuc reporter raw signal (replicates)", "setting": "Sec61 [2]; IL2, Concentration 5000", "result": "24453 and 26590 and 27282"}, {"measurement": "GLuc reporter raw signal (replicates)", "setting": "Sec61 [2]; IL2, Concentration 25000", "result": "27001 and 26299 and 26941"}, {"measurement": "GLuc reporter raw signal (replicates)", "setting": "Sec61 [2]; PD1, Concentration 0.32", "result": "1085300 and 1145000 and 1139600"}, {"measurement": "GLuc reporter raw signal (replicates)", "setting": "Sec61 [2]; PD1, Concentration 8", "result": "871620 and 904180 and 884200"}, {"measurement": "GLuc reporter raw signal (replicates)", "setting": "Sec61 [2]; PD1, Concentration 40", "result": "505580 and 506170 and 515230"}, {"measurement": "GLuc reporter raw signal (replicates)", "setting": "Sec61 [2]; PD1, Concentration 200", "result": "149930 and 159870 and 181940"}, {"measurement": "GLuc reporter raw signal (replicates)", "setting": "Sec61 [2]; PD1, Concentration 1000", "result": "25647 and 33346 and 33065"}, {"measurement": "GLuc reporter raw signal (replicates)", "setting": "Sec61 [2]; PD1, Concentration 5000", "result": "10483 and 12045 and 12165"}, {"measurement": "GLuc reporter raw signal (replicates)", "setting": "Sec61 [2]; PD1, Concentration 25000", "result": "10613 and 11144 and 10202"}, {"measurement": "GLuc reporter raw signal (replicates)", "setting": "Sec61 [2]; Prolactin, Concentration 0.32", "result": "9123600 and 9441100 and 9520300"}, {"measurement": "GLuc reporter raw signal (replicates)", "setting": "Sec61 [2]; Prolactin, Concentration 40", "result": "8673700 and 8850000 and 8412700"}, {"measurement": "GLuc reporter raw signal (replicates)", "setting": "Sec61 [2]; Prolactin, Concentration 200", "result": "7415400 and 7981400 and 8354800"}, {"measurement": "GLuc reporter raw signal (replicates)", "setting": "Sec61 [2]; Prolactin, Concentration 1000", "result": "4269000 and 4043400 and 4397300"}, {"measurement": "GLuc reporter raw signal (replicates)", "setting": "Sec61 [2]; Prolactin, Concentration 5000", "result": "1501600 and 1605300 and 3990200"}, {"measurement": "GLuc reporter raw signal (replicates)", "setting": "Sec61 [2]; Prolactin, Concentration 25000", "result": "1205700 and 1279300 and 1375600"}, {"measurement": "GLuc reporter raw signal (replicates)", "setting": "Sec61 [2]; TNFa, Concentration 0.32", "result": "190530 and 188640 and 185180"}, {"measurement": "GLuc reporter raw signal (replicates)", "setting": "Sec61 [2]; TNFa, Concentration 8", "result": "168690 and 159800"}, {"measurement": "GLuc reporter raw signal (replicates)", "setting": "Sec61 [2]; TNFa, Concentration 40", "result": "128960 and 129480 and 142690"}, {"measurement": "GLuc reporter raw signal (replicates)", "setting": "Sec61 [2]; TNFa, Concentration 200", "result": "58379 and 60837 and 65010"}, {"measurement": "GLuc reporter raw signal (replicates)", "setting": "Sec61 [2]; TNFa, Concentration 1000", "result": "21193 and 19058 and 21945"}, {"measurement": "GLuc reporter raw signal (replicates)", "setting": "Sec61 [2]; TNFa, Concentration 5000", "result": "10351 and 10241 and 10171"}, {"measurement": "GLuc reporter raw signal (replicates)", "setting": "Sec61 [2]; TNFa, Concentration 25000", "result": "9540 and 9711 and 9400"}]}]}
